Laboratory results published in the NIST ThermoML archive (doi:10.1016/j.jct.2013.09.015).

How the values were obtained:
[1] = excess molar enthalpy (molar enthalpy of mixing); xn = mol fraction of the nth substance listed; conditions: 298.15 K, 101 kPa, Liquid, Calvet calorimetry
[2] = 298.15 K, 101.33 kPa, Liquid; for speed of sound: Sing-around technique in a fixed-path interferometer; for mass density: Vibrating tube method

O=C1CCCN1 [2-pyrrolidinone] + c1ccncc1
[1]
Conditions	excess molar enthalpy [kcal/mol]
x1 = 0.1213	0.0217
x1 = 0.1715	0.029
x1 = 0.2336	0.0366
x1 = 0.2615	0.0394
x1 = 0.3255	0.0446
x1 = 0.3701	0.0471
x1 = 0.4291	0.0489
x1 = 0.4711	0.0493
x1 = 0.5256	0.0485
x1 = 0.5713	0.0469
x1 = 0.6364	0.0431
x1 = 0.6716	0.0404
x1 = 0.7315	0.0348
x1 = 0.7619	0.0315
x1 = 0.8311	0.0232
x1 = 0.8751	0.0174
x1 = 0.9204	0.0112
x1 = 0.9344	0.00927

O=C1CCCN1 [2-pyrrolidinone] + O
[1]
Conditions	excess molar enthalpy [kcal/mol]
x1 = 0.1013	-0.0589
x1 = 0.136	-0.0776
x1 = 0.1745	-0.0978
x1 = 0.2319	-0.125
x1 = 0.2775	-0.145
x1 = 0.3351	-0.166
x1 = 0.3813	-0.18
x1 = 0.4343	-0.193
x1 = 0.4783	-0.2
x1 = 0.5401	-0.205
x1 = 0.5713	-0.206
x1 = 0.6264	-0.201
x1 = 0.6771	-0.192
x1 = 0.7314	-0.177
x1 = 0.7693	-0.162
x1 = 0.8326	-0.13
x1 = 0.8951	-0.0899
x1 = 0.9204	-0.0708

c1ccncc1 [pyridine]
[2]
Conditions	mass density [kg/m3]	speed of sound [m/s]
–	978.252	1417.8

CCn1cc[n+](C)c1.F[B-](F)(F)F [1-ethyl-3-methylimidazolium tetrafluoroborate]
[2]
Conditions	mass density [kg/m3]	speed of sound [m/s]
–	1279.91	1619.4

O=C1CCCN1 [2-pyrrolidinone]
[2]
Conditions	mass density [kg/m3]	speed of sound [m/s]
–	1107.15	1633.9

CCn1cc[n+](C)c1.F[B-](F)(F)F [1-ethyl-3-methylimidazolium tetrafluoroborate] + O
[1]
Conditions	excess molar enthalpy [kcal/mol]
x1 = 0.1136	0.0374
x1 = 0.1678	0.0537
x1 = 0.2249	0.0693
x1 = 0.2734	0.0812
x1 = 0.331	0.0934
x1 = 0.3615	0.0989
x1 = 0.4325	0.109
x1 = 0.4709	0.112
x1 = 0.5314	0.115
x1 = 0.5722	0.115
x1 = 0.6291	0.113
x1 = 0.6685	0.109
x1 = 0.7311	0.0986
x1 = 0.771	0.0898
x1 = 0.8324	0.0724
x1 = 0.8694	0.0596
x1 = 0.9103	0.0434
x1 = 0.9311	0.0343

c1ccncc1 [pyridine] + CN1CCCC1=O
[1]
Conditions	excess molar enthalpy [kcal/mol]
x2 = 0.0911	-0.0363
x2 = 0.1426	-0.052
x2 = 0.1985	-0.0669
x2 = 0.2312	-0.0755
x2 = 0.2854	-0.086
x2 = 0.312	-0.0903
x2 = 0.3789	-0.097
x2 = 0.443	-0.103
x2 = 0.4995	-0.104
x2 = 0.5478	-0.102
x2 = 0.5851	-0.1
x2 = 0.6359	-0.0959
x2 = 0.6982	-0.0895
x2 = 0.725	-0.0852
x2 = 0.7732	-0.0742
x2 = 0.8489	-0.0552
x2 = 0.8923	-0.0427
x2 = 0.9156	-0.0345

CN1CCCC1=O [N-methylpyrrolidone]
[2]
Conditions	mass density [kg/m3]	speed of sound [m/s]
–	1028.23	1546
